What follows are compounds tested against T1, HCV RdRp NS5B d21BK (BK strain, 1b subtype) (Hepatitis C virus genotype 1b, UniProt P26663) (assay: Hepatitis C polymerase (NS5B RdRp) inhibition, 33P-GTP incorporation filter assay). Details: NS5B d21BK 24 nM, 2 hours at room temperature; read-out: HCV pol IC50.
T1 construct: NS5B from the BK strain (1b subtype) is expressed in E. coli as a protein in which the 21 C-terminal amino acids are replaced; made in house; host or cells: E. coli
Assay type: biochemical
Text: The ability of the compounds of the present invention to inhibit Hepatitis C Polymerase was established by the following experimental procedure:
NS5B from the BK strain (1b subtype) is expressed in E. coli as a protein in which the 21 C-terminal amino acids are replaced with a short linker and a hexahistidine tag ([…]). The purified protein is mixed with radioactive nucleotides and allowed to replicate a heteropolymeric RNA substrate, primed by an endogenous short hairpin, resulting in an approximately 760 nt product. The radioactive product is captured on a filter and quantitated after removal of the unincorporated nucleotides.
(1) Compounds 10 μl at 10 μg/ml in 15% dimethylsulfoxide (DMSO)
• When starting from 100 μg/ml compound stock in […]: • Dispense 5 μl 30% DMSO per well • Dispense 5 μl compound (100 μg/ml) per well. • When starting from 50 μg/ml compound stock in 15% DMSO: • Add 10 μl compound per well. (2) Enzyme Mix:
Add 20 μl enzyme mix into each well of the assay plate. Incubate compound and enzyme at room temperature for 15 minutes. (3) Template Mix—Prepare Ahead
Spin down a tube of RNA (5 μg/tube stored in 75% ethanol and 0.3 M sodium acetate) in a microcentrifuge for 20 minutes. at 4° C. One tube is enough for 1-1.5 plates. Remove as much ethanol from the tube as possible by inverting the tube. Be gentle, pellet RNA may not adhere to the tube. Vacuum dry the RNA. Resuspend the RNA by adding 1 ml of DEPC water, close the cap of the tube tightly. To dissolve RNA, incubate RNA solution on ice for ˜60 minutes and gently vortex. Spin briefly to ensure all RNA solution is down to the bottom of the tube before opening cap. Gently transfer RNA solution into a 5 ml or larger tube. Add another 3 ml of DEPC water (total 4 ml of volume).
Add the following volumes of reagents
Add 20 μl template mix per reaction (i.e. 20 ng of pOF per reaction or ˜3 nM) (4) Incubate reaction at room temperature (22-25° C.) for 2 hours. (5) Stop reaction by adding 50 μl of 170 mM EDTA. • Final concentration of EDTA is 85 mM. (6) Prewet filters of Millipore multiscreen assay plate by adding 200 μl of 0.5 M sodium phosphate buffer, pH 7.0 into each well. Let stand at room temperature for 2-3 minutes. (7) Place the multiscreen filter plate onto a Millipore Manifold and turn on vacuum to allow buffer to flow through. Turn off vacuum. Transfer 80 μl of the reaction product into each well of the filter plate. Let stand for 2-3 minutes. Turn on vacuum to filter reaction product. (8) Turn off vacuum. Add. 200 μl of 0.5 M sodium phosphate buffer, pH 7.0 into each well to wash filter. […]
Percent inhibition is calculated after background subtraction as a percent reduction of activity relative to the positive control (average value of the plate excluding the negative controls). […]

T1 sequence (P26663 2420-2989): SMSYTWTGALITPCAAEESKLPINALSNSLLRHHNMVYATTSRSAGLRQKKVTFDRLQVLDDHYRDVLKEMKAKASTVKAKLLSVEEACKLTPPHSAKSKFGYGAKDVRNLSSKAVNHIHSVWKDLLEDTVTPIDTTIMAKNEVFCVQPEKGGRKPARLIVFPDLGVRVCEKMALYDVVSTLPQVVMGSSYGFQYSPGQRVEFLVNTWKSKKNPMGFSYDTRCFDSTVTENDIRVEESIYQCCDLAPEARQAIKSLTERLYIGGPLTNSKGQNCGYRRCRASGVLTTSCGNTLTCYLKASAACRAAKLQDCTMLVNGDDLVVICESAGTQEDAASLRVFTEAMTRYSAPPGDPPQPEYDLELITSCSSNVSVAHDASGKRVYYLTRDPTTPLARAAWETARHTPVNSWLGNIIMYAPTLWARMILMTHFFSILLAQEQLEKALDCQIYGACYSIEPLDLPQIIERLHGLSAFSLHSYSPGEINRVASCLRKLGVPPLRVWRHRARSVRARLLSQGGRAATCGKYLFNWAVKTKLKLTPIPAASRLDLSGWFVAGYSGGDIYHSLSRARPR

SMILES | IC50 [µM]
CCC[C@]1(CC(=O)O)OCCc2c1[nH]c1c(C)ccc(C#N)c21 [Example 1, [(R)-5-cyano-8-methyl-1-propyl-1,3,4,9-tetrahydropyrano[3,4-b]indol-1-yl]acetic acid] | 0.33
CCC[C@]1(CC(=O)O)OCCc2c1[nH]c1c(F)ccc(C#N)c21 [Example 2, [(R)-5-cyano-8-fluoro-1-propyl-1,3,4,9-tetrahydropyrano[3,4-b]indol-1-yl]acetic acid] | 0.44
CCC[C@]1(CC(=O)O)OCCc2c1[nH]c1c(Cl)ccc(Cl)c21 [Example 3, [(R)-5,8-dichloro-1-propyl-1,3,4,9-tetrahydropyrano[3,4-b]indol-1-yl]acetic acid] | 0.06
CCC[C@]1(CC(=O)O)OCCc2c1[nH]c1c(C)cc(F)c(C#N)c21 [Example 4, [(R)-5-cyano-6-fluoro-8-methyl-1-propyl-1,3,4,9-tetrahydropyrano [3,4-b]indol-1-yl]acetic acid] | 0.08

— patent US6964979B2, “R-enantiomers of pyranoindole derivatives and the use thereof for the treatment of hepatitis C virus infection or disease” (Wyeth, priority 2002, dated 2005)
